These results are taken from PMC7016953 (Cells, 2020).

The structures appear in SMILES notation.

Test [1] deals with T1, TRPC7.
T1 construct: expressed in transfected cells
Kind of test: Whole-cell patch-clamp recordings in HEK TRPC7-YFP cells. The conditions noted are these: 50 µM OAG, subsequent exposure. It counts as cell-based, human. As to the method:
(§1) The recordings of TRPC3, TRPC6, or TRPC7 membrane currents in HEK293 or PC12 cells were realized by using a Multiclamp 700B amplifier with a Digidata 1440A digitizer controlled by the PClamp 10 software (all Molecular Devices, Sunnyvale, CA, U.S.A.). Recordings were obtained at room temperature either in the whole-cell or in an outside-out configuration as indicated. Cells were seeded as described above, but at lower density, mounted in a chamber (Warner Instruments, Hamden, CT; U.S.A.), placed onto the stage of an inverted microscope, and perfused with required solution. The standard extracellular solution contained 140 mM NaCl, 5 mM CsCl, 2 mM MgCl2, 1 mM CaCl2, 10 mM HEPES, and 0.035% BSA adjusted to pH 7.4 with NaOH. The composition of standard intracellular solution was 140 mM CsCl, 1 mM MgCl2, 5 mM EGTA, and 10 mM HEPES adjusted to pH 7.25 with CsOH; the osmolarity was 295 mOsm l^−1. In outside-out measurements, the pipette solution contained 5 mM EGTA and 1.1 mM CaCl2 to achieve a calculated free Ca^2+ concentration of 100 nM.
(§2) Patch pipettes were pulled from borosilicate glass capillaries BG150F-8P (Science Products, Hofheim, Germany) with a PIP6 pipette puller (HEKA Elektronik, Lambrecht, Germany). […] In all whole-cell measurements, the series resistance was lower than 13 MΩ, and compensated by 70%. […]

Test [2] has as its system T2, TRPC6.
T2 construct: expressed in transfected cells
The test is described as follows: Whole-cell patch-clamp recordings in HEK TRPC6-YFP cells. It counts as cell-based, human. The conditions noted are these: 50 µM OAG, subsequent exposure. On the procedure: as §1, §2

Test [3] relates to PC12 cells (native TRPC3 channel complexes). The test is described as follows: [Ca2+]i analysis in fura-2-loaded PC12 cells. It counts as cell-based, rat. The following applies: artemisinin 50 or 100 µM; 6–12 experiments for each compound. As to the method: Human embryonic kidney 293 (HEK293) cells were stably transfected with expression plasmids that encode hTRPC3-YFP, hTRPC6-YFP, hTRPC7-YFP, mTRPC4ß-YFP, rTRPV1-CFP, rTRPV2-YFP, rTRPV3-YFP, mTRPV4-YFP, or hTRPM2 as previously described. Cell lines were cultured in Earle’s minimum essential medium (MEM; Sigma, Munich, Germany), supplemented with 10% fetal calf serum (Gibco Thermo Fisher Scientific, Darmstadt, Germany), 2 mM L-glutamine, and required concentrations of geneticin in a range of 0.4–1 mg/mL. A HEK293mTRPC5-YFP cell line was maintained and induced as described before. The HEK293mTRPM3α2 cells (expressing the Ca^2+-permeable main variant of mouse TRPM3) were kindly provided by Johannes Oberwinkler (Marburg, Germany), the HEK293hTRPA1 cells that constitutively overexpress the human TRPA1 were from Dr. Natalie Tigue and Dr. Steve Moore (GlaxoSmithKline, Harlow, UK). With the exception of mTRPC5-YFP, all cell lines constitutively overexpress the respective TRP channel under the control of a cytomegalovirus (CMV) promoter. A HEK cell line stably expressing the human protein kinase C (PKC) ε C-terminally tagged with YFP [13] was generated and maintained in the same medium as HEKTRPC3-YFP cells. PC12 cells were cultured in RPMI-1640 (Sigma, Munich, Germany) with 10% fetal calf serum, 2 mM L-glutamine, 100 U/mL penicillin, and 0.1 mg/mL streptomycin. For electrophysiological and single cell [Ca^2+]i imaging experiments, PC12 cells were plated onto 25 mm poly-L-lysine-coated glass coverslips and measured 24–48 h after seeding. All cells were maintained at 37 °C in a 5% CO2-aerated, humidified atmosphere.
(§3) The microfluorometric single-cell [Ca^2+]i analysis was performed on an inverted epifluorescence microscope (Carl Zeiss, Jena, Germany) and calibrated as described. Cells were grown on 25 mm coverslips and loaded with 4 µM fura-2/AM (AAT Bioquest, Sunnyvale, CA, U.S.A.) in HBS containing 0.2% BSA for 30 min at 37 °C. After gently rinsing the coverslips with HBS, coverslips were mounted in a bath chamber and superfused with HBS containing 0.035% BSA.
Figure 7 Expression of TRPC3 and functional responses to TRPC activators in PC12 rat pheochromocytoma cells. (A) Immunofluorescence analysis of TRPC3 (green channel) and tyrosine hydroxylase (TH; red channel) expression in PC12 cells. Nuclei were counterstained with DAPI (blue channel). Bars: 20 µm scale. Time course of the [Ca^2+]i (B) and averaged basal and peak [Ca^2+]i values (C) were recorded by microfluorometric analysis in fura-2-loaded PC12 cells grown on glass coverslips. […] Data represent averages (B) or means and S.D. (C) of 6–12 imaging experiments for each compound. Significant increases compared to the respective basal values are indicated (#: p < 0.05; Student´s t-test for paired data).

The subject of test [4] is T3, TRPC3.
T3 construct: expressed in transfected cells
The test is described as follows: Microfluorometric single-cell [Ca2+]i analysis, fura-2-loaded HEK cells stably expressing TRPC3. It counts as cell-based, human. The conditions noted are these: 100 µM OAG applied sequentially; also in HEK cells expressing mouse TRPC3. On the procedure:
as §3
Figure 2 Microfluorometric single-cell analysis of artemisinin-induced increases in [Ca^2+]i in fura-2-loaded HEK cells stably expressing TRPC3 (A), TRPC6 (B), or TRPC7 (C). […] Experiments were performed either in standard bath solution, containing 1 mM Ca^2+ (black lines and bars), or in a nominally Ca^2+-free HBS buffer, supplemented with 200 µM EGTA (grey lines and bars). Time courses of averaged responses (left), and statistical analysis of 6–11 independent imaging experiments with means and S.D. (right) are shown. Significant differences (p < 0.05, Student´s t-test with paired data: #, with unpaired data: *) are marked for the indicated comparisons; n.s.: difference is statistically not significant.

For test [5], the target named is T4, TRPC3 (Homo sapiens, UniProt Q13507).
T4 construct: expressed in transfected cells
T4 sequence (Q13507 1-848 isoform Q13507-3): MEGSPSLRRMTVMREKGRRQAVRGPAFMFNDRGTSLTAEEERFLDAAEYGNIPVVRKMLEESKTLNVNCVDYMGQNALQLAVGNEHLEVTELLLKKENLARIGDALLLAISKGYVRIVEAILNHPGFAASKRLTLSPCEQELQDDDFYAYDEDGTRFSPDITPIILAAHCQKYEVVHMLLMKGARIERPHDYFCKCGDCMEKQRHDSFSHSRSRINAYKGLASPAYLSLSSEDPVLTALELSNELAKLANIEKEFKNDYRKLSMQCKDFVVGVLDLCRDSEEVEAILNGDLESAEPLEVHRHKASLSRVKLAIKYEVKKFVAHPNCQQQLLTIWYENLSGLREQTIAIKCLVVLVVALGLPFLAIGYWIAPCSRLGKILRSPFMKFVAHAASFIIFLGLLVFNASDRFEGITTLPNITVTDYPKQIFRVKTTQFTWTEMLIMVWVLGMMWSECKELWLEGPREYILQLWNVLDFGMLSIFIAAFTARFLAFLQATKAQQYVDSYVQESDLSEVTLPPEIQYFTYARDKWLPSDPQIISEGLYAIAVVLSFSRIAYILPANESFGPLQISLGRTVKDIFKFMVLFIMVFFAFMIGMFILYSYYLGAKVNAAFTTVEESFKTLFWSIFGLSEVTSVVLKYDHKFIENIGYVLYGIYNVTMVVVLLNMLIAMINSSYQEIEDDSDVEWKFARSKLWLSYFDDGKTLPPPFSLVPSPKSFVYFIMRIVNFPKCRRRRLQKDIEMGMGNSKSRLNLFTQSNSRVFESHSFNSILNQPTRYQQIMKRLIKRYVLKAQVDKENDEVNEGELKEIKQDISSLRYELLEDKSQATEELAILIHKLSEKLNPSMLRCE
The test is described as follows: Fluo-4 Ca2+ influx assay in HEK TRPC3-YFP cell suspensions. It counts as cell-based.

The test system of test [6] is T5, heteromeric TRPC3:TRPC6 channel complexes.
T5 construct: expressed in transfected cells; host or cells: HEK293, stably co-transfected
Kind of test: Fluo-4 Ca2+ influx assay in HEK293 cells co-expressing TRPC3 and TRPC6. It counts as cell-based. The following applies: fluo-4 concentration response analysis. As to the method:
(§4) All fluorometric Ca^2+ assays were done in (4-(2-hydroxyethyl)-1-piperazineethanesulfonic acid) (HEPES)-buffered saline (HBS), containing 132 mM NaCl, 6 mM KCl, 1 mM MgCl2, 1 mM CaCl2, 5.5 mM D-glucose, 10 mM HEPES, and 0.035% bovine serum albumin (BSA) adjusted to pH 7.4 with NaOH. For measurements in Ca^2+-free bath solutions, a modified HBS without CaCl2 was supplemented with 200 µM ethylene glycol-bis(β-aminoethyl ether)-N,N,N′,N′-tetraacetic acid (EGTA).
(§5) The primary compound screen and the generation of concentration response curves in HEK293 cells or in PC12 cells were performed by using a custom-made fluorescence plate imager built into a robotic liquid handling station equipped with a 96-tip multichannel head (Freedom Evo 150, Tecan, Männedorf, Switzerland) as described previously. To this end, trypsinized cell suspensions were loaded with 4 µM fluo-4/AM (Invitrogen, Thermo Fisher Scientific, Waltham, MA, U.S.A.) in cell culture medium for 30 min at 37 °C. After brief centrifugation, cells were resuspended in HBS and dispensed into black pigmented, clear-bottom 384-well plates (Greiner µClear, Frickenhausen, Germany). Plates were mounted on the imager, and fluorescence signals were recorded with a cooled Zyla 5.5 camera (Andor, Belfast, UK) through a 515 nm long pass filter. The image acquisition was controlled by the µManager software (http://micro-manager.org), and excitation with a LED array (470 nm) was synchronized by the camera trigger output. After baseline recording for about 60 s, the compound libraries or serial dilutions of activators or inhibitors were added to the cells by the liquid handling device. When inhibitory potencies were evaluated, a second pipetting step with the respective reference agonist was performed. Fluorescence intensities were calculated from image stacks for each well with ImageJ (National Institutes of Health, Bethesda, MD, U.S.A.), corrected for background signals, and normalized to the initial intensities (F/F0). […]

For test [7], the system named is parental HEK293 cells. Kind of test: [Ca2+]i response in un-transfected parental HEK293 cells. Format: cell-based, human. The conditions noted are these: concentrations up to 50 µM. On the procedure: as §4, §5
Test [8] concerns T6, hTRPC7-YFP.
T6 construct: expressed in transfected cells
The test is described as follows: Fluo-4 Ca2+ influx assay in HEK293 cells stably expressing TRPC7. Format: cell-based, human. The conditions noted are these: fluo-4 concentration response analysis.

For test [9], the system named is T7, hTRPC6-YFP.
T7 construct: expressed in transfected cells
The test is described as follows: Fluo-4 Ca2+ influx assay in HEK293 cells stably expressing TRPC6. Format: cell-based, human.

Turning to `CCCCCCCC/C=C\CCCCCCCC(=O)OC[C@H](CO)OC(C)=O` [OAG, 1-oleoyl-2-acetyl-sn-glycerol], the “current densities in TRPC7-expressing HEK cells” value in [1] is on record as “caused increases in current densities”. Further, the “current densities in TRPC6-expressing HEK cells” value in [2] is “caused increases in current densities”. The “[Ca2+]i in fura 2-loaded PC12 cells” value in test [3] is “significant increases in [Ca^2+]i”. For the same molecule, the “further increase in [Ca2+]i after challenge with maximally effective artemisinin” value in test [4] was “failed to induce a further increase in [Ca^2+]i”. The “EC50 of OAG in the presence of artemisinin” value in [5] (30 or 100 µM artemisinin co-applied) was “shifted to lower concentrations”.
With `C[C@H]1[C@@H](O)O[C@@H]2O[C@@]3(C)CC[C@H]4[C@H](C)CC[C@@H]1[C@@]24OO3` [artenimol], in test [6], the “response of cells stably transfected with both TRPC3 and TRPC6” value was “in a very similar fashion as HEKTRPC3-YFP cells”. Further, in [7], the “response of un-transfected parental HEK293 cells” value is reported as “no response”. Besides, in [8], the “effect on TRPC7” value is given as “remained largely unaffected”. Further, the “effect on TRPC6” value in [9] (fluo-4 concentration response analysis) is listed as “marked preference to activate TRPC3, but not the closely related TRPC6 channel”. In [9] (primary screen, 20 µM), the “signal in counterscreen with TRPC6-expressing cells” value is “no signals”. The “fluorescence signal of the Ca2+ indicator in primary screen” value in [5] (20 µM, acute addition) was “immediate and transient increase in the fluorescence signal”. Also, the “TRPC3 activation in concentration response analysis” value in [5] (fluo-4, up to 200 µM, compared with solvent (DMSO)) is “did not reach saturation”.
